Source: ChEMBL document CHEMBL1177794, “Broad spectrum alkynyl inhibitors of T315I Bcr-Abl” (Bioorg Med Chem Lett, 2010)

Assays:
[1] = biological target: NUAK family SNF1-like kinase 2 (Homo sapiens) (UniProt Q9H093); test: Inhibition of SNARK at 10 uM
[2] = biological target: Serine/threonine-protein kinase Chk1 (Homo sapiens) (UniProt O14757); test: Inhibition of CHEK1 at 10 uM; values are per cent of control
[3] = biological target: ALK tyrosine kinase receptor (Homo sapiens) (UniProt Q9UM73); test: Inhibition of ALK at 10 uM; values are per cent of control
[4] = biological target: Interleukin-1 receptor-associated kinase 4 (Homo sapiens) (UniProt Q9NWZ3); test: Inhibition of IRAK4 at 10 uM; values are per cent of control
[5] = biological target: Mitogen-activated protein kinase 13 (Homo sapiens) (UniProt O15264); test: Inhibition of p38delta at 10 uM; values are per cent of control
[6] = test system: Phosphatidylinositol 4,5-bisphosphate 3-kinase catalytic subunit alpha isoform (Homo sapiens), P42336 [C420R]; test: Inhibition of PIK3CA C420R mutant at 10 uM
[7] = biological target: Inhibitor of nuclear factor kappa-B kinase subunit alpha (Homo sapiens) (UniProt O15111); test: Inhibition of IKK-alpha at 10 uM; conditions: values are per cent of control
[8] = test system: Phosphatidylinositol 4,5-bisphosphate 3-kinase catalytic subunit alpha isoform (Homo sapiens), P42336 [H1047L]; test: Inhibition of PIK3CA H1047L mutant at 10 uM
[9] = biological target: Serine/threonine-protein kinase 25 (Homo sapiens) (UniProt O00506); test: Inhibition of YSK1 at 10 uM; conditions: values are per cent of control
[10] = biological target: Dual specificity mitogen-activated protein kinase kinase 7 (Homo sapiens) (UniProt O14733); test: Inhibition of MKK7 at 10 uM
[11] = biological target: Myosin-IIIa (Homo sapiens) (UniProt Q8NEV4); test: Inhibition of MYO3A at 10 uM
[12] = test system: Phosphatidylinositol 4,5-bisphosphate 3-kinase catalytic subunit alpha isoform (Homo sapiens), P42336 [E545K]; test: Inhibition of PIK3CA E545K mutant at 10 uM
[13] = biological target: Membrane-associated tyrosine- and threonine-specific cdc2-inhibitory kinase (Homo sapiens) (UniProt Q99640); test: Inhibition of PKMYT1 at 10 uM
[14] = biological target: Uncharacterized serine/threonine-protein kinase SBK3 (Homo sapiens) (UniProt P0C264); test: Inhibition of SgK110 at 10 uM
[15] = biological target: Tyrosine-protein kinase JAK1 (Homo sapiens) (UniProt P23458); test: Inhibition of JAK1 JH1 catalytic domain at 10 uM; values are per cent of control
[16] = biological target: Serine/threonine-protein kinase tousled-like 1 (Homo sapiens) (UniProt Q9UKI8); test: Inhibition of TLK1 at 10 uM
[17] = biological target: SRSF protein kinase 3 (Homo sapiens) (UniProt Q9UPE1); test: Inhibition of SRPK3 at 10 uM
[18] = biological target: Homeodomain-interacting protein kinase 4 (Homo sapiens) (UniProt Q8NE63); test: Inhibition of HIPK4 at 10 uM; conditions: values are per cent of control
[19] = biological target: Ribosomal protein S6 kinase alpha-3 (Homo sapiens) (UniProt P51812); test: Inhibition of RSK2 N-terminal domain1 at 10 uM
[20] = biological target: Receptor-type tyrosine-protein kinase FLT3 (Homo sapiens) (UniProt P36888); test: Inhibition of FLT3 at 10 uM; conditions: values are per cent of control
[21] = biological target: Mitogen-activated protein kinase 7 (Homo sapiens) (UniProt Q13164); test: Inhibition of ERK5 at 10 uM; values are per cent of control
[22] = biological target: Serine/threonine-protein kinase DCLK1 (Homo sapiens) (UniProt O15075); test: Inhibition of DCAMKL1 at 10 uM; values are per cent of control
[23] = biological target: Ribosomal protein S6 kinase alpha-2 (Homo sapiens) (UniProt Q15349); test: Inhibition of RSK3 N-terminal domain1 at 10 uM
[24] = test system: Epidermal growth factor receptor (Homo sapiens), P00533 [G719C]; test: Inhibition of EGFR G719C mutant at 10 uM; values are per cent of control
[25] = biological target: Misshapen-like kinase 1 (Homo sapiens) (UniProt Q8N4C8); test: Inhibition of MINK at 10 uM
[26] = biological target: Dual specificity mitogen-activated protein kinase kinase 5 (Homo sapiens) (UniProt Q13163); test: Inhibition of MEK5 at 10 uM; conditions: values are per cent of control
[27] = biological target: Tyrosine-protein kinase Lyn (Homo sapiens) (UniProt P07948); test: Inhibition of LYN at 10 uM; values are per cent of control
[28] = biological target: Megakaryocyte-associated tyrosine-protein kinase (Homo sapiens) (UniProt P42679); test: Inhibition of CTK at 10 uM; conditions: values are per cent of control
[29] = biological target: T1, Epidermal growth factor receptor (Homo sapiens) (UniProt P04626+P00533+Q15303+P21860); test: Inhibition of EGFR L747-T751del, Sins mutant at 10 uM; values are per cent of control
[30] = biological target: Mitogen-activated protein kinase kinase kinase 20 (Homo sapiens) (UniProt Q9NYL2); test: Inhibition of ZAK at 10 uM; conditions: values are per cent of control
[31] = biological target: Serine/threonine-protein kinase Nek2 (Homo sapiens) (UniProt P51955); test: Inhibition of NEK2 at 10 uM
[32] = biological target: Tyrosine-protein kinase receptor Tie-1 (Homo sapiens) (UniProt P35590); test: Inhibition of TIE1 at 10 uM
[33] = biological target: T1, Epidermal growth factor receptor (Homo sapiens); test: Inhibition of EGFR S752-I759del mutant at 10 uM; values are per cent of control
[34] = biological target: Leukocyte tyrosine kinase receptor (Homo sapiens) (UniProt P29376); test: Inhibition of LTK at 10 uM; conditions: values are per cent of control
[35] = biological target: 5'-AMP-activated protein kinase catalytic subunit alpha-1 (Homo sapiens) (UniProt Q13131); test: Inhibition of AMPK-alpha1 at 10 uM; conditions: values are per cent of control
[36] = biological target: Cyclin-dependent kinase 18 (Homo sapiens) (UniProt Q07002); test: Inhibition of PCTK3 at 10 uM; conditions: values are per cent of control
[37] = biological target: Dual specificity protein kinase CLK3 (Homo sapiens) (UniProt P49761); test: Inhibition of CLK3 at 10 uM; conditions: values are per cent of control
[38] = biological target: Vascular endothelial growth factor receptor 3 (Homo sapiens) (UniProt P35916); test: Inhibition of FLT4 at 10 uM; conditions: values are per cent of control
[39] = biological target: Serine/threonine-protein kinase 38-like (Homo sapiens) (UniProt Q9Y2H1); test: Inhibition of NDR2 at 10 uM
[40] = biological target: Cyclin-dependent kinase 2 homolog (Plasmodium falciparum (isolate K1 / Thailand)) (UniProt Q07785); test: Inhibition of Plasmodium falciparum PFPK5 at 10 uM

Sequence of ALK tyrosine kinase receptor (Homo sapiens) (Q9UM73 19-1620 limits assumed): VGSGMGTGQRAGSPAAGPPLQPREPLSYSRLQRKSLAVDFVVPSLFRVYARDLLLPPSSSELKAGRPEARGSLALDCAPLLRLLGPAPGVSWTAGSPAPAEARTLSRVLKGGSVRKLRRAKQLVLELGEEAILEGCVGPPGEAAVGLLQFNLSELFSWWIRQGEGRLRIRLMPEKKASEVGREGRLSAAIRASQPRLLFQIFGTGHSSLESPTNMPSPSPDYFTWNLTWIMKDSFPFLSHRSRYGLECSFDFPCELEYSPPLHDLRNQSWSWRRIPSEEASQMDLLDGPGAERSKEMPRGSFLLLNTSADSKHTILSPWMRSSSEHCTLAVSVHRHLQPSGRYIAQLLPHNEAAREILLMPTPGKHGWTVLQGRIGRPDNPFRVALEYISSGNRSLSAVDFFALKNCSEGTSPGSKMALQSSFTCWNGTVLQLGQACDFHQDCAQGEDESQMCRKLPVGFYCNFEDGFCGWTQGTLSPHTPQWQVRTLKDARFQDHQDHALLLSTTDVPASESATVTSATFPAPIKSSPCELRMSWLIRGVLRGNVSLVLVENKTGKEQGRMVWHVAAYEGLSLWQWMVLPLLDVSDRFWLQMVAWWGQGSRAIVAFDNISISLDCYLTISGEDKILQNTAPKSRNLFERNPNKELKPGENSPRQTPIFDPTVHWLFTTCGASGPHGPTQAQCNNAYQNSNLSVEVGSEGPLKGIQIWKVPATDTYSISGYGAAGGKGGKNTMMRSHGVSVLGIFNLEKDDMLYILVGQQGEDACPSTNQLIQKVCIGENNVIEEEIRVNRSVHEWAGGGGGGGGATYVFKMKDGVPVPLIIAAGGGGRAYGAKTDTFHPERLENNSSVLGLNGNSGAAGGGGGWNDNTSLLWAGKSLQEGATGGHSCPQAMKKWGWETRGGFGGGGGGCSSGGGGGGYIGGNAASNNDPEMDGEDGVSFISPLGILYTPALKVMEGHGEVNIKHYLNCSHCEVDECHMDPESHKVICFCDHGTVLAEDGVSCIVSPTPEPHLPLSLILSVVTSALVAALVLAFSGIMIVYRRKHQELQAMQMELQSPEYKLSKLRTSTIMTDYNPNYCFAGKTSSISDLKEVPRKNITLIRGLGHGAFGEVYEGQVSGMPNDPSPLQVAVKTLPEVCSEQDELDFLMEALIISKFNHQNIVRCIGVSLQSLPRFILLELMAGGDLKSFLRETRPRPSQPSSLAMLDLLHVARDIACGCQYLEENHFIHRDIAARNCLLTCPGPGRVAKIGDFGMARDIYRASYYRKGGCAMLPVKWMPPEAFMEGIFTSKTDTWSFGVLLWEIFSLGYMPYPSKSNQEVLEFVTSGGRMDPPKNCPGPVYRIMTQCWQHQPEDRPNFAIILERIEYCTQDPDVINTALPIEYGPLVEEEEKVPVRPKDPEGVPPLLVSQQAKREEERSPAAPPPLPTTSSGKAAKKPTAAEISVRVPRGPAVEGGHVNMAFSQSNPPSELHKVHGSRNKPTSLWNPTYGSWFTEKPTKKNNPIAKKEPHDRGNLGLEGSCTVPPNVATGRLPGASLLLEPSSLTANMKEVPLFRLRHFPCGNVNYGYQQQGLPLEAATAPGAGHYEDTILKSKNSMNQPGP
Sequence of Dual specificity protein kinase CLK3 (Homo sapiens) (P49761 whole entry, looked up): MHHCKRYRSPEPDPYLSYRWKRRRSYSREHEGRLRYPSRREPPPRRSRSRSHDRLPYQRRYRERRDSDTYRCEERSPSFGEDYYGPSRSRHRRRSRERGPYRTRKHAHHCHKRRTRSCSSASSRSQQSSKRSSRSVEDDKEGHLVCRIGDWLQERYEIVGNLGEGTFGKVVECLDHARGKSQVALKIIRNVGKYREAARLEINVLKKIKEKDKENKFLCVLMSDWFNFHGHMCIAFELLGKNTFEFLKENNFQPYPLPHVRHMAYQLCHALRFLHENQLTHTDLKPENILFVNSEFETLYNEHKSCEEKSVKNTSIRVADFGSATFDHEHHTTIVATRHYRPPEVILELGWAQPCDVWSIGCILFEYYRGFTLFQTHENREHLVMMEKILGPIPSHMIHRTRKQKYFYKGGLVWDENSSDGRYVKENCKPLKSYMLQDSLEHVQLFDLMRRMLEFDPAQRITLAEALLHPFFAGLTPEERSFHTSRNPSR
Sequence of Serine/threonine-protein kinase Chk1 (Homo sapiens) (O14757 whole entry): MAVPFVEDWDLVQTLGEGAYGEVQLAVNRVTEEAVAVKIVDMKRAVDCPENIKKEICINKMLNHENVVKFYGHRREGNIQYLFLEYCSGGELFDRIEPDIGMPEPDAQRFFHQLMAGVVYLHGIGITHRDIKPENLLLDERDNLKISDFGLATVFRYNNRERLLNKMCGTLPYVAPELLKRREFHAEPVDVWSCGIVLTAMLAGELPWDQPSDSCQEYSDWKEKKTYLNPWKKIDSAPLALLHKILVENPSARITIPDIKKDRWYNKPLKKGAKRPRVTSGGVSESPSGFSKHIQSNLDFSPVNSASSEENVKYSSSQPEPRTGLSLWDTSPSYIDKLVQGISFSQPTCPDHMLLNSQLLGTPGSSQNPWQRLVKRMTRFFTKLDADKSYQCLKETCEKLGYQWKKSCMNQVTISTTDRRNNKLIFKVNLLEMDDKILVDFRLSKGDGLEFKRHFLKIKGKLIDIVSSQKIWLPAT
Sequence of Dual specificity mitogen-activated protein kinase kinase 7 (Homo sapiens) (O14733 whole entry): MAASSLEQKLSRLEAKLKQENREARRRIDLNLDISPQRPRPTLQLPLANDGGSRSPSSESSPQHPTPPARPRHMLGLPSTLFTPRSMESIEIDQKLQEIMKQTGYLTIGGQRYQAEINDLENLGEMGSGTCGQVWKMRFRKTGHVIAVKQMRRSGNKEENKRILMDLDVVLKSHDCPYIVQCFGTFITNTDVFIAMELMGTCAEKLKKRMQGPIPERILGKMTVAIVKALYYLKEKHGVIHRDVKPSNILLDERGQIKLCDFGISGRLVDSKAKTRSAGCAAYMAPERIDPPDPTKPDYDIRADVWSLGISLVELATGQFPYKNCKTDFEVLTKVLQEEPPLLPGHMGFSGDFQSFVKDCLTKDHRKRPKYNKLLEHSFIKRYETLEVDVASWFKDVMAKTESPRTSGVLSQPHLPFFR
Sequence of Dual specificity mitogen-activated protein kinase kinase 5 (Homo sapiens) (Q13163 whole entry): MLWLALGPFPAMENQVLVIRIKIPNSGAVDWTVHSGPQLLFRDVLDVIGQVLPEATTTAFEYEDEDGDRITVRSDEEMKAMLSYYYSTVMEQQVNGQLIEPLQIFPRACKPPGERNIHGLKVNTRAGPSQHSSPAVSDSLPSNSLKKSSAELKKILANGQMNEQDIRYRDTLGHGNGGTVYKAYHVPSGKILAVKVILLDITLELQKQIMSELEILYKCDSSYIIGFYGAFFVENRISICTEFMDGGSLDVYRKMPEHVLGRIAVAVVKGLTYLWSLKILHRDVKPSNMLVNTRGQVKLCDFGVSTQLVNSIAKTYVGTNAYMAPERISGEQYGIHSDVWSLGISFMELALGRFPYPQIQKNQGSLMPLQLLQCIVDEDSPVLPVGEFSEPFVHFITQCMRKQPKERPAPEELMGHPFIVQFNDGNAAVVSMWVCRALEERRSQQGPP
Sequence of Mitogen-activated protein kinase 13 (Homo sapiens) (O15264 whole entry, canonical isoform): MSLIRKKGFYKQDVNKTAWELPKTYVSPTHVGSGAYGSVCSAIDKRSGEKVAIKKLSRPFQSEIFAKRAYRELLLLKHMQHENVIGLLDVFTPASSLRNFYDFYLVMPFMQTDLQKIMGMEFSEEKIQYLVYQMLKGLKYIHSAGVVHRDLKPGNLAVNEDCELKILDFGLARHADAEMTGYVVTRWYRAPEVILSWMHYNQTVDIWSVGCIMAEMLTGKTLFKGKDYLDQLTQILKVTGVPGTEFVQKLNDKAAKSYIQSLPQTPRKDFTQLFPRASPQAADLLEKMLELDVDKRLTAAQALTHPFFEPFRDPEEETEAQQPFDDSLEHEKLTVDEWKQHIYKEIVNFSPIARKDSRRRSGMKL
Sequence of 5'-AMP-activated protein kinase catalytic subunit alpha-1 (Homo sapiens) (Q13131 whole entry, looked up): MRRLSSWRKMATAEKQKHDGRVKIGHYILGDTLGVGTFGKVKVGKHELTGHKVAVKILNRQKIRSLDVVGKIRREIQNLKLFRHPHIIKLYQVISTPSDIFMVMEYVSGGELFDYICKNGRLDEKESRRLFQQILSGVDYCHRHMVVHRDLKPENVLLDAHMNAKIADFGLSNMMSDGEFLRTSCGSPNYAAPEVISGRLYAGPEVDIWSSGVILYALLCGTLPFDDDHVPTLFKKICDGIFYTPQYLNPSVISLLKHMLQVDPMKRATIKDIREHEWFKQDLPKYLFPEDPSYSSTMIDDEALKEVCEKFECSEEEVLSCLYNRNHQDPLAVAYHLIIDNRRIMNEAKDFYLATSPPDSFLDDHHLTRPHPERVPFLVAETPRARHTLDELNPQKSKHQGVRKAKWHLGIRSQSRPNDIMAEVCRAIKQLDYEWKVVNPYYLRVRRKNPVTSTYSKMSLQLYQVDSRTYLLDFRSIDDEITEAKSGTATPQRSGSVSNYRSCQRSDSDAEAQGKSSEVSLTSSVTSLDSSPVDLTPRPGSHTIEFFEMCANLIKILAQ
Sequence of Membrane-associated tyrosine- and threonine-specific cdc2-inhibitory kinase (Homo sapiens) (Q99640 whole entry): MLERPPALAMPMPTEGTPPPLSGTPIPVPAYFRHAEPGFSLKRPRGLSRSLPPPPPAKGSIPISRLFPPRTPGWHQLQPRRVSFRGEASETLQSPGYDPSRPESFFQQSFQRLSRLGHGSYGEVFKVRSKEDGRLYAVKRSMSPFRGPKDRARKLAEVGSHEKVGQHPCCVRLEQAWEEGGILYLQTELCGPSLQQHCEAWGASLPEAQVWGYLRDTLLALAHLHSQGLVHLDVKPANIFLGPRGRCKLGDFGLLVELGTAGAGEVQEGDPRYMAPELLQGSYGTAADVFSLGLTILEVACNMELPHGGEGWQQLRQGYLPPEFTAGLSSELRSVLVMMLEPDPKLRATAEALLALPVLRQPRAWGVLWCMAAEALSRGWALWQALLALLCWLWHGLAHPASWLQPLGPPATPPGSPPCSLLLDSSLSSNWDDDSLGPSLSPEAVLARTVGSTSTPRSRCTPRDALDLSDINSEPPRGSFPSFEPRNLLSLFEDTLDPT

Structure (SMILES) | inhibition [1] [%] | level, % of control [2] [%] | level, % of control [3] [%] | level, % of control [4] [%] | % of control [5] [%] | inhibition [6] [%] | residual binding, % of control [7] [%] | inhibition [8] [%] | residual binding, % of control [9] [%] | inhibition [10] [%] | inhibition [11] [%] | inhibition [12] [%] | inhibition [13] [%] | inhibition [14] [%] | level, % of control [15] [%] | inhibition [16] [%] | inhibition [17] [%] | residual binding, % of control [18] [%] | inhibition [19] [%] | residual binding, % of control [20] [%] | also measured
CCN1CCN(Cc2ccc(NC(=O)c3ccc(C)c(C#Cc4cccnc4)c3)cc2C(F)(F)F)CC1 | 99 | 80 | 23 | 72 | 2.5 | 72 | 0 | 100 | 16 | 11 | 3.2 | 85 | 85 | 100 | 6.2 | 93 | 45 | 2.2 | 16 | 0.25 | level, % of control [21]: 71%; level, % of control [22]: 95%; inhibition [23]: 9.5%; level, % of control [24]: 0.75%; inhibition [25]: 2.5%; residual binding, % of control [26]: 0.4%; level, % of control [27]: 0.05%; residual binding, % of control [28]: 35%; level, % of control [29]: 0.45%; residual binding, % of control [30]: 0.4%; inhibition [31]: 100%; inhibition [32]: 1.6%; level, % of control [33]: 0.9%; residual binding, % of control [34]: 4.5%; residual binding, % of control [35]: 1.2%; residual binding, % of control [36]: 6.2%; residual binding, % of control [37]: 70%; residual binding, % of control [38]: 0%; inhibition [39]: 8.7%; inhibition [40]: 89%
CCN1CCN(Cc2ccc(NC(=O)c3ccc(C)c(C#Cc4cnc5[nH]ccc5c4)c3)cc2C(F)(F)F)CC1 | 84 | 88 | 52 | 64 | 2.6 | 95 | 0.45 | 100 | 12 | 5.4 | 15 | 98 | 48 | 42 | 2.9 | 93 | 11 | 1.9 | 2.8 | 0.15 | level, % of control [21]: 36%; level, % of control [22]: 100%; inhibition [23]: 0.7%; level, % of control [24]: 0%; inhibition [25]: 5.4%; residual binding, % of control [26]: 0.4%; level, % of control [27]: 0.05%; residual binding, % of control [28]: 45%; level, % of control [29]: 0.4%; residual binding, % of control [30]: 0.25%; inhibition [31]: 100%; inhibition [32]: 1.1%; level, % of control [33]: 0.75%; residual binding, % of control [34]: 2.5%; residual binding, % of control [35]: 0.8%; residual binding, % of control [36]: 12%; residual binding, % of control [37]: 94%; residual binding, % of control [38]: 0.1%; inhibition [39]: 11%; inhibition [40]: 93%
